Experimental findings from PubChem BioAssay (NCI) are described below.

“And” between values parts separate entries of the source, which are not always exact repeats. Identical values can stand only once.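 Assay format: 96-well plates, 48-hour exposure. The concentration for 50% growth inhibition is given as GI50. TGI denotes the concentration required for complete inhibition of growth.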

What all share (assay): NCI anticancer screen, dose series, 48 h
Experiment [1] deals with 786-0 renal.
In experiment [2] the test system is SK-MEL-28 melanoma.
The subject of experiment [3] is HCT-116 colon.
Experiment [4] relates to SF-268 CNS.
Experiment [5] relates to A549 NSCLC.
Experiment [6] concerns IGROV1 ovarian.
Experiment [7] has as its system SK-MEL-5 melanoma.
Experiment [8] concerns SR leukemia.
For experiment [9], the system named is OVCAR-4 ovarian.
Experiment [10] relates to MALME-3M melanoma.

Turning to `Nc1cc(-c2cccc(OC(F)(F)F)c2)nc2ccc(N3CCCC3)cc12`, the GI50 in [1] is 0.0656 µM and 0.078 µM and 0.0573 µM; in experiment [2], 1.46 µM and 3.07 µM and 3.91 µM; in experiment [3], 0.0384 µM and 0.0323 µM and 0.0258 µM; in [4], 0.0819 µM and 0.0837 µM and 0.0784 µM; in experiment [5], 0.137 µM and 0.0852 µM and 0.0836 µM; in [6] it was 0.0698 µM and 0.0623 µM and 0.0793 µM. The GI50 in experiment [7] is 0.042 µM and 0.0394 µM and 0.0348 µM; in experiment [8], 0.0275 µM and 0.0154 µM and 0.0135 µM; in [9] it was 0.519 µM and 1.16 µM and 1.59 µM; in experiment [10], 0.265 µM and 0.299 µM and 0.246 µM. The TGI in experiment [1] was 12.3 µM and > 100 µM and > 47.8 µM; in experiment [4], 22 µM and > 100 µM; in experiment [5], 18.6 µM and > 100 µM; in experiment [6], 25.3 µM and > 100 µM; in [7] it was 0.621 µM and 0.67 µM and 0.361 µM; in experiment [9], more than 100 µM.

Regarding `COC(=O)C12C3C4C5C3(C#N)C1C5(C(=O)OC)C42C(=O)N(C(C)C)C(C)C` (stereo not drawn), the TGI in [1], in experiment [2], in experiment [3], in [4], in [5] and in [6] was more than 100 µM each time. Further, the TGI is more than 100 µM in experiment [7], 33.3 µM in experiment [8], more than 100 µM in [9] and more than 100 µM in [10].

In the case of `CCOC(=O)C1=C(Nc2ccc(Cl)cc2Cl)OC/C1=N\NS(=O)(=O)c1ccc(C)cc1`, the TGI in [1], in experiment [2], in [3], in [4], in experiment [5] and in [6] was more than 100 µM in each case. Further, the TGI in experiment [7], in experiment [8], in experiment [9] and in experiment [10] was more than 100 µM throughout.

As for `Nc1nc(=S)[nH]c(C(=O)Nc2ccc(Cl)c(Cl)c2)c1-c1ccc(Cl)cc1`, the TGI in experiment [1], in experiment [2], in experiment [3], in experiment [4], in [5] and in experiment [6] was more than 100 µM throughout. Besides, the TGI in experiment [7], in experiment [8], in experiment [9] and in experiment [10] was more than 100 µM throughout.

`C[C@@H]1N=C(c2ccc(Br)cc2)Nc2nc3ccccn3c2C1=O`: the GI50 in experiment [1] is 23.8 µM; in [2], 9.51 µM; in experiment [3] it was 4.04 µM; in experiment [4], 17.2 µM; in experiment [5], 6.7 µM; in experiment [6] it was 51.9 µM. Further, the GI50 in [7] was 2.24 µM; in experiment [8] it was 2.42 µM; in experiment [9] it was 17.9 µM; in [10], 15.2 µM. The TGI in [1], in experiment [2], in experiment [3], in experiment [4], in [5] and in experiment [6] was more than 100 µM each time. Also, the TGI in experiment [7] is 40.5 µM; in [8], more than 100 µM; in experiment [9], more than 100 µM; in experiment [10], more than 100 µM.

In the case of `O=C(Nc1ccc(F)cc1F)c1cc(Br)ccc1O`, the GI50 is 3.13 µM in experiment [1]; 1.43 µM in experiment [2]; 2.47 µM in experiment [3]; 2.78 µM in experiment [4]; 3.26 µM in experiment [5]; 2.18 µM in [6]. In addition, the GI50 was 1.59 µM in experiment [7], 3.05 µM in experiment [8], 2.1 µM in experiment [9] and 1.85 µM in experiment [10]. The TGI in experiment [1] is 10.2 µM; in experiment [2] it was 6.24 µM; in experiment [3], 8.45 µM; in [4] it was 38.7 µM; in [5] it was more than 100 µM; in experiment [6] it was more than 100 µM. The TGI was 3.34 µM in experiment [7], more than 100 µM in experiment [8], 92 µM in experiment [9] and 5.75 µM in experiment [10].

Take `COc1cccc(-c2nc3sccn3c2-c2ccnc(NCCNS(=O)(=O)c3ccccc3)c2)c1`: the GI50 is 4 µM in experiment [1]; 5.13 µM in [2]; 2.73 µM in experiment [3]; 3.54 µM in experiment [4]; 2.68 µM in experiment [5]; 2.2 µM in experiment [6]. Also, the GI50 in experiment [7] was 1.53 µM; in experiment [8], 3.21 µM; in experiment [9] it was 2.09 µM; in experiment [10] it was 2.79 µM. Moreover, the TGI in experiment [1], in experiment [2], in [3], in experiment [4], in [5] and in experiment [6] was more than 100 µM in each case. Moreover, the TGI is 4.89 µM in experiment [7], more than 100 µM in [8], more than 100 µM in experiment [9] and more than 100 µM in experiment [10].

Consider `O=C(Nc1ccc(F)cc1)C(=O)C(C1OC(=O)c2ccccc21)[N+](=O)[O-]` (stereo not drawn), for which the TGI in [1], in experiment [2], in [3], in experiment [4], in [5] and in experiment [6] was more than 100 µM throughout. The TGI in experiment [7], in [8], in experiment [9] and in experiment [10] was more than 100 µM throughout.

For the compound `COc1ccc(C2=C(c3ccc(OC)c(OC)c3)C(=O)OC2)cc1`, the GI50 in experiment [1] is less than 0.01 µM; in [3] it was less than 0.01 µM; in experiment [4], 0.106 µM; in [5], 0.133 µM; in experiment [6], 0.0768 µM; in experiment [7] it was less than 0.05 µM. The results for the GI50 in experiment [8] and in [9] were less than 0.01 µM and more than 58.4 µM, respectively. The TGI in experiment [2] is more than 100 µM; in experiment [3] it was more than 100 µM; in [4], more than 91.7 µM; in experiment [5], more than 100 µM; in experiment [6] it was more than 62.8 µM; in [7] it was 2.57 µM. Also, the values for the TGI in [8], in experiment [9] and in [10] were 0.0192 µM, more than 100 µM and more than 81 µM, respectively.
